In patent US11304949B2, “Treatment of hidradenitis suppurativa using JAK inhibitors” (Incyte Corporation, priority 2018, dated 2022):
One block for each compound: values may come before it.

Tests used:
[1] = system: human JAK1 (a.a. 837-1142); assay: In vitro JAK kinase assay (HTRF), JAK1; format: biochemical; conditions: IC50 ratio at 1 mM ATP
[2] = target: human JAK1 (a.a. 837-1142) (Homo sapiens, UniProt P23458); assay: In vitro JAK kinase assay (HTRF), JAK1; format: biochemical; conditions: 1 mM ATP
[3] = system: Transformed human keratinocyte (HaCaT) cells stimulated with TNFα and IFNγ; assay: JAK inhibitors in TNFα/IFNγ stimulated keratinocytes, gene expression (QuantiGene Plex); conditions: 24 hours, normalized to HPRT1, mean ± standard error
[4] = system: Transformed human keratinocyte (HaCaT) cells stimulated with TNFα and IFNγ; assay: JAK inhibitors in TNFα/IFNγ stimulated keratinocytes, inflammatory mediators in media (ProCarta Multiplex Immunoassay); conditions: mean ± 1 standard error
[5] = TNFα (25 ng/mL) and IFNγ (25 ng/mL), drug 25 nM
[6] = TNFα (25 ng/mL) and IFNγ (25 ng/mL), drug 50 nM
[7] = TNFα (25 ng/mL) and IFNγ (25 ng/mL), drug 100 nM
[8] = TNFα (25 ng/mL) and IFNγ (25 ng/mL), drug 200 nM
[9] = TNFα (25 ng/mL) and IFNγ (25 ng/mL) stimulation, drug 25 nM
[10] = TNFα (25 ng/mL) and IFNγ (25 ng/mL) stimulation, drug 50 nM
[11] = TNFα (25 ng/mL) and IFNγ (25 ng/mL) stimulation, drug 100 nM
[12] = TNFα (25 ng/mL) and IFNγ (25 ng/mL) stimulation, drug 200 nM

JAK2/JAK1 [1]: >10 | IC50 [2]: < 10 nM
SMILES: N#CCC(C1CCN(c2cccc(Cl)n2)C1)n1cc(-c2ncnc3[nH]ccc23)cn1 (single isomer, unassigned) [Compound 6, 3-[1-(6-chloropyridin-2-yl)pyrrolidin-3-yl]-3-[4-(7H-pyrrolo[2,3-d]pyrimidin-4-yl)-1H-pyrazol-1-yl]propanenitrile]

JAK2/JAK1 [1]: >10 | IC50 [2]: < 10 nM
SMILES: N#CCC1(n2cc(-c3ncnc4[nH]ccc34)cn2)CN(C2CCN(C(=O)Nc3ccc(F)cc3C(F)(F)F)CC2)C1 [Compound 2, 4-{3-(Cyanomethyl)-3-[4-(7H-pyrrolo[2,3-d]pyrimidin-4-yl)-1H-pyrazol-1-yl]azetidin-1-yl}-N-[4-fluoro-2-(trifluoromethyl)phenyl]piperidine-1-carboxamide]

JAK2/JAK1 [1]: >10 | IC50 [2]: < 10 nM
SMILES: N#CCC1(n2cc(-c3ncnc4[nH]ccc34)cn2)CN(C2CCN(C(=O)c3ccnc(C(F)(F)F)n3)CC2)C1 [Compound 3, [3-[4-(7H-pyrrolo[2,3-d]pyrimidin-4-yl)-1H-pyrazol-1-yl]-1-(1-{[2-(trifluoromethyl)pyrimidin-4-yl]carbonyl}piperidin-4-yl)azetidin-3-yl]acetonitrile]

JAK2/JAK1 [1]: >10 | IC50 [2]: < 10 nM
SMILES: N#CC[C@]1(n2cc(-c3ncnc4[nH]ccc34)cn2)C[C@H](N2CCC(Oc3cc(CN4CC(O)C4)cc(C(F)(F)F)n3)CC2)C1 [Compound 11, {trans-3-(4-{[4-[(3-hydroxyazetidin-1-yl)methyl]-6-(trifluoromethyl)pyridin-2-yl]oxy}piperidin-1-yl)-1-[4-(7H-pyrrolo[2,3-d]pyrimidin-4-yl)-1H-pyrazol-1-yl]cyclobutyl}acetonitrile]

JAK2/JAK1 [1]: >10 | IC50 [2]: < 10 nM
SMILES: C[C@H](NC(=O)c1cc(F)c(N2CC(CC#N)(n3cc(-c4ncnc5[nH]ccc45)cn3)C2)cc1F)C(F)(F)F [Compound 16, 4-{3-(cyanomethyl)-3-[4-(7H-pyrrolo[2,3-d]pyrimidin-4-yl)-1H-pyrazol-1-yl]azetidin-1-yl}-2,5-difluoro-N-[(1S)-2,2,2-trifluoro-1-methylethyl]benzamide]

The next lines start with the compound.

SMILES: Cc1n[nH]c(C)c1-c1cnn(C2(CC#N)CN(c3cc(F)c(C(=O)N[C@@H](C)C(F)(F)F)cc3F)C2)c1 [Compound 4]
IL-1α MFI [3, 5]: 1370.52 ± 35.28 | IL-6 MFI [3, 5]: 135.32 ± 3.36 | JAK1 MFI [3, 5]: 206.29 ± 6.84 | JAK2 MFI [3, 5]: 114.94 ± 2.16 | JAK3 MFI [3, 5]: 1.02 ± 0.19 | STAT1 MFI [3, 5]: 3111.17 ± 182.20 | STAT3 MFI [3, 5]: 1557.84 ± 58.15 | STAT4 MFI [3, 5]: 5.65 ± 0.44 | STAT5A MFI [3, 5]: 22.82 ± 1.77 | STAT6 MFI [3, 5]: 1020.89 ± 23.57 | TYK2 MFI [3, 5]: 283.97 ± 8.59 | IL-1α MFI [3, 6]: 1308.7 ± 45.12 | IL-6 MFI [3, 6]: 128.14 ± 6.83 | JAK1 MFI [3, 6]: 194.2 ± 8.24 | JAK2 MFI [3, 6]: 107.16 ± 2.86 | JAK3 MFI [3, 6]: 0.99 ± 0.16 | STAT1 MFI [3, 6]: 3058.64 ± 154.86 | STAT3 MFI [3, 6]: 1519.61 ± 69.92 | STAT4 MFI [3, 6]: 5.41 ± 0.33 | STAT5A MFI [3, 6]: 20.71 ± 1.77 | STAT6 MFI [3, 6]: 982.62 ± 14.34 | TYK2 MFI [3, 6]: 273.68 ± 7.44 | IL-1α MFI [3, 7]: 1194.29 ± 12.27 | IL-6 MFI [3, 7]: 112.13 ± 3.37 | JAK1 MFI [3, 7]: 193.28 ± 4.55 | JAK2 MFI [3, 7]: 95.51 ± 3.13 | JAK3 MFI [3, 7]: 0.99 ± 0.15 | STAT1 MFI [3, 7]: 3035.33 ± 122.14 | STAT3 MFI [3, 7]: 1457.24 ± 54.48 | STAT4 MFI [3, 7]: 5.32 ± 0.46 | STAT5A MFI [3, 7]: 18.44 ± 1.85 | STAT6 MFI [3, 7]: 943.66 ± 25.99 | TYK2 MFI [3, 7]: 266 ± 6.82 | IL-1α MFI [3, 8]: 1151.31 ± 20.01 | IL-6 MFI [3, 8]: 101.17 ± 2.91 | JAK1 MFI [3, 8]: 182.86 ± 4.07 | JAK2 MFI [3, 8]: 91.17 ± 2.15 | JAK3 MFI [3, 8]: 0.85 ± 0.15 | STAT1 MFI [3, 8]: 2984.14 ± 163.4 | STAT3 MFI [3, 8]: 1483.1 ± 51.73 | STAT4 MFI [3, 8]: 5.04 ± 0.36 | STAT5A MFI [3, 8]: 17.64 ± 1.46 | STAT6 MFI [3, 8]: 966.51 ± 12.3 | TYK2 MFI [3, 8]: 263.49 ± 5.05 | IL-1α MFI ([3]; no stimulation, drug 200 nM): 88.72 ± 5.90 | IL-6 MFI ([3]; no stimulation, drug 200 nM): 4.98 ± 0.28 | JAK1 MFI ([3]; no stimulation, drug 200 nM): 177.67 ± 11.84 | JAK2 MFI ([3]; no stimulation, drug 200 nM): 25.25 ± 1.04 | JAK3 MFI ([3]; no stimulation, drug 200 nM): 0.68 ± 0.17 | STAT1 MFI ([3]; no stimulation, drug 200 nM): 554.39 ± 11.80 | STAT3 MFI ([3]; no stimulation, drug 200 nM): 746.17 ± 16.73 | STAT4 MFI ([3]; no stimulation, drug 200 nM): 4.28 ± 0.61 | STAT5A MFI ([3]; no stimulation, drug 200 nM): 1.75 ± 0.44 | STAT6 MFI ([3]; no stimulation, drug 200 nM): 762.04 ± 9.44 | TYK2 MFI ([3]; no stimulation, drug 200 nM): 217.28 ± 14.28 | IL-1α concentration in media [4, 9]: 7.74 ± 0.36 pg/mL | IL-6 concentration in media [4, 9]: 774.87 ± 31.09 pg/mL | IP-10/CXCL10 concentration in media [4, 9]: 3999.39 ± 370.53 pg/mL | MIP1α concentration in media [4, 9]: 101.71 ± 3.84 pg/mL | RANTES concentration in media [4, 9]: 216.88 ± 13.45 pg/mL | IL-1α concentration in media [4, 10]: 7.01 ± 0.39 pg/mL | IL-6 concentration in media [4, 10]: 710.89 ± 36.7 pg/mL | IP-10/CXCL10 concentration in media [4, 10]: 3665.2 ± 277.11 pg/mL | MIP1α concentration in media [4, 10]: 104.54 ± 6.56 pg/mL | RANTES concentration in media [4, 10]: 201.93 ± 15.44 pg/mL | IL-1α concentration in media [4, 11]: 7.27 ± 0.47 pg/mL | IL-6 concentration in media [4, 11]: 690.4 ± 35.25 pg/mL | IP-10/CXCL10 concentration in media [4, 11]: 3860.41 ± 323.05 pg/mL | MIP1α concentration in media [4, 11]: 96.4 ± 4.18 pg/mL | RANTES concentration in media [4, 11]: 207.79 ± 17.38 pg/mL | IL-1α concentration in media [4, 12]: 6.45 ± 0.38 pg/mL | IL-6 concentration in media [4, 12]: 621.79 ± 33.44 pg/mL | IP-10/CXCL10 concentration in media [4, 12]: 3835.78 ± 304.58 pg/mL | MIP1α concentration in media [4, 12]: 98.72 ± 3.87 pg/mL | RANTES concentration in media [4, 12]: 189.62 ± 13.78 pg/mL | IL-1α concentration in media ([4]; no stimulation, drug 200 nM): 0.30 ± 0.05 pg/mL | IL-6 concentration in media ([4]; no stimulation, drug 200 nM): 28.79 ± 2.91 pg/mL | IP-10/CXCL10 concentration in media ([4]; no stimulation, drug 200 nM): 20.23 ± 0.48 pg/mL | MIP1α concentration in media ([4]; no stimulation, drug 200 nM): 2.90 ± 0.21 pg/mL | RANTES concentration in media ([4]; no stimulation, drug 200 nM): 8.61 ± 0.52 pg/mL

SMILES: N#CCC(C1CCN(c2nc3cccnc3o2)C1)n1cc(-c2ncnc3[nH]ccc23)cn1 (stereo not shown) [Compound 7, 3-(1-[1,3]oxazolo[5,4-b]pyridin-2-ylpyrrolidin-3-yl)-3-[4-(7H-pyrrolo[2,3-d]pyrimidin-4-yl)-1H-pyrazol-1-yl]propanenitrile]
JAK2/JAK1 [1]: >10 | IC50 [2]: < 10 nM

SMILES: N#CCC(CN1CCN(C(=O)c2ccc(C#N)cc2F)CC1)n1cc(-c2ncnc3[nH]ccc23)cn1 (stereo not shown) [Compound 8, 4-[(4-{3-cyano-2-[4-(7H-pyrrolo[2,3-d]pyrimidin-4-yl)-1H-pyrazol-1-yl]propyl}piperazin-1-yl)carbonyl]-3-fluorobenzonitrile]
JAK2/JAK1 [1]: >10 | IC50 [2]: < 10 nM

SMILES: N#CCC(CN1CCN(C(=O)c2ccc(C#N)cc2F)CC1)n1ccc(-c2ncnc3[nH]ccc23)c1 (stereo not shown) [Compound 9, 4-[(4-{3-cyano-2-[3-(7H-pyrrolo[2,3-d]pyrimidin-4-yl)-1H-pyrrol-1-yl]propyl}piperazin-1-yl)carbonyl]-3-fluorobenzonitrile]
JAK2/JAK1 [1]: >10 | IC50 [2]: < 10 nM

SMILES: N#CC[C@]1(n2cc(-c3ncnc4[nH]ccc34)cn2)C[C@H](N2CCN(C(=O)c3ccnc(C(F)(F)F)n3)CC2)C1 [Compound 10, [trans-1-[4-(7H-pyrrolo[2,3-d]pyrimidin-4-yl)-1H-pyrazol-1-yl]-3-(4-{[2-(trifluoromethyl)pyrimidin-4-yl]carbonyl}piperazin-1-yl)cyclobutyl]acetonitrile]
JAK2/JAK1 [1]: >10 | IC50 [2]: < 10 nM

SMILES: N#CC[C@]1(n2cc(-c3ncnc4[nH]ccc34)cn2)C[C@H](N2CCC(Oc3cc(CN4CCC[C@H]4CO)cc(C(F)(F)F)n3)CC2)C1 [Compound 12, {trans-3-(4-{[4-{[(2S)-2-(hydroxymethyl)pyrrolidin-1-yl]methyl}-6-(trifluoromethyl)pyridin-2-yl]oxy}piperidin-1-yl)-1-[4-(7H-pyrrolo[2,3-d]pyrimidin-4-yl)-1H-pyrazol-1-yl]cyclobutyl}acetonitrile]
JAK2/JAK1 [1]: >10 | IC50 [2]: < 10 nM

SMILES: N#CC[C@]1(n2cc(-c3ncnc4[nH]ccc34)cn2)C[C@H](N2CCC(Oc3cc(CN4CCC[C@@H]4CO)cc(C(F)(F)F)n3)CC2)C1 [Compound 13, {trans-3-(4-{[4-{[(2R)-2-(hydroxymethyl)pyrrolidin-1-yl]methyl}-6-(trifluoromethyl)pyridin-2-yl]oxy}piperidin-1-yl)-1-[4-(7H-pyrrolo[2,3-d]pyrimidin-4-yl)-1H-pyrazol-1-yl]cyclobutyl}acetonitrile]
JAK2/JAK1 [1]: >10 | IC50 [2]: < 10 nM

SMILES: N#CCC1(n2cc(-c3ncnc4[nH]ccc34)cn2)CN([C@H]2CC[C@@H](Oc3cc(CCO)nc(C(F)(F)F)n3)CC2)C1 [Compound 18, {1-(cis-4-{[6-(2-hydroxyethyl)-2-(trifluoromethyl)pyrimidin-4-yl]oxy}cyclohexyl)-3-[4-(7H-pyrrolo[2,3-d]pyrimidin-4-yl)-1H-pyrazol-1-yl]azetidin-3-yl}acetonitrile]
JAK2/JAK1 [1]: >10 | IC50 [2]: < 10 nM

SMILES: CCNCc1cc(O[C@H]2CC[C@@H](N3CC(CC#N)(n4cc(-c5ncnc6[nH]ccc56)cn4)C3)CC2)nc(C(F)(F)F)c1 [Compound 19, {1-(cis-4-{[4-[(ethylamino)methyl]-6-(trifluoromethyl)pyridin-2-yl]oxy}cyclohexyl)-3-[4-(7H-pyrrolo[2,3-d]pyrimidin-4-yl)-1H-pyrazol-1-yl]azetidin-3-yl}acetonitrile]
JAK2/JAK1 [1]: >10 | IC50 [2]: < 10 nM
